From article PMC10279920, “Single-molecule visualization of Pif1 helicase translocation on single-stranded DNA” (The Journal of Biological Chemistry, 2023)
Numbering of substitutions follows the chain as printed.

Tests used:
[1] = molecular target: T1, Pif1 (unlabeled, WT Pif1) (Saccharomyces cerevisiae, UniProt P07271); assay: ATP hydrolysis, [γ-32P]-ATP TLC, Michaelis-Menten fit; format: biochemical; details: M13 ssDNA 1.5 μM nt, 10 nM Pif1, 5 mM MgCl2, 60 mM KCl, pH 7.5, 30 °C, no RPA; labelled compound as tracer
T1 construct: nuclear isoform residues 40-859, pRSF-Duet-1, E. coli Rosetta2(DE3), Ni-NTA purified (tag not described), no GFP
T1 sequence (P07271 40-859): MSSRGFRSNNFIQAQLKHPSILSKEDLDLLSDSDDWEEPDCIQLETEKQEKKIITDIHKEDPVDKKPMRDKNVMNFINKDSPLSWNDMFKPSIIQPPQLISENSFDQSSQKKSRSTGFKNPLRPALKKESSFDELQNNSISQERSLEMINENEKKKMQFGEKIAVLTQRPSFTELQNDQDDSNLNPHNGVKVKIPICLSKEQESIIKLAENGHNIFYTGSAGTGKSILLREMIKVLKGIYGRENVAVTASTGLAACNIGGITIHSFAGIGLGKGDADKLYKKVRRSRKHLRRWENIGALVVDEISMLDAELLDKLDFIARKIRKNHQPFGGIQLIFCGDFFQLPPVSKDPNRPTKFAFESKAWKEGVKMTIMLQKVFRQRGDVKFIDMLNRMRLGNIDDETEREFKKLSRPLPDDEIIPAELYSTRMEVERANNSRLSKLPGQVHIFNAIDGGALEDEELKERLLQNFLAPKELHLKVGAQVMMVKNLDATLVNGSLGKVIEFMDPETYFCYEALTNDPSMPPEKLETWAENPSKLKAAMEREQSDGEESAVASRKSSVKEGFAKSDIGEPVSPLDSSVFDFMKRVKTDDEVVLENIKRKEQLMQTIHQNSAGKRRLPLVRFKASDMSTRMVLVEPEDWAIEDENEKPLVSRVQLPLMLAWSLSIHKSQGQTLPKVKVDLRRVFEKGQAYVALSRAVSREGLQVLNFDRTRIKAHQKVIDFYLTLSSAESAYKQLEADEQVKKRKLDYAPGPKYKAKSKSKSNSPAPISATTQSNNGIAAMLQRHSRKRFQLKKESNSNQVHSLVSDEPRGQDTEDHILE
Method: ATP hydrolysis, [γ-32P]-ATP TLC, Michaelis-Menten fit on Pif1 (unlabeled, WT Pif1) | Values for Vmax, Km, and kcat were determined and compared to WT Pif1

GFP-Pif1 = molecular target: T2, GFP-Pif1 (Saccharomyces cerevisiae, UniProt P07271, K387A); assay: as above; format: biochemical; details: M13 ssDNA 1.5 μM nt, 10 nM Pif1, 5 mM MgCl2, 60 mM KCl, pH 7.5, 30 °C, no RPA; labelled compound as tracer
T2 construct: N-terminal superfolder GFP fusion of nuclear isoform residues 40-859, pRSF-Duet-1, E. coli Rosetta2(DE3), Ni-NTA purified
T2 sequence (P07271 40-859 K387A): T1 sequence (P07271 40-859) with K348A

Km [1]: 490 ± 370 µM
Km (GFP-Pif1): 540 ± 290 µM
SMILES: Nc1ncnc2c1ncn2[C@@H]1O[C@H](COP(=O)(O)OP(=O)(O)OP(=O)(O)O)[C@@H](O)[C@H]1O [ATP]
